Measurements: article PMC6440482 (European journal of pharmacology, 2018)
pIC50: −log10 of the molar value. Where “and” joins values, the source holds several entries; their conditions need not be identical. Equal values may be shown once. Read-outs that look alike come from different tables or passages of the source.

Assays:
hOCT2 = target: T1, hOCT2 (Homo sapiens, UniProt O15244); assay: [3H]MPP+ uptake competition in stable hOCT2-HEK cells; assay type: cell-based; details: 10 min room temperature
T1 sequence (O15244 1-555): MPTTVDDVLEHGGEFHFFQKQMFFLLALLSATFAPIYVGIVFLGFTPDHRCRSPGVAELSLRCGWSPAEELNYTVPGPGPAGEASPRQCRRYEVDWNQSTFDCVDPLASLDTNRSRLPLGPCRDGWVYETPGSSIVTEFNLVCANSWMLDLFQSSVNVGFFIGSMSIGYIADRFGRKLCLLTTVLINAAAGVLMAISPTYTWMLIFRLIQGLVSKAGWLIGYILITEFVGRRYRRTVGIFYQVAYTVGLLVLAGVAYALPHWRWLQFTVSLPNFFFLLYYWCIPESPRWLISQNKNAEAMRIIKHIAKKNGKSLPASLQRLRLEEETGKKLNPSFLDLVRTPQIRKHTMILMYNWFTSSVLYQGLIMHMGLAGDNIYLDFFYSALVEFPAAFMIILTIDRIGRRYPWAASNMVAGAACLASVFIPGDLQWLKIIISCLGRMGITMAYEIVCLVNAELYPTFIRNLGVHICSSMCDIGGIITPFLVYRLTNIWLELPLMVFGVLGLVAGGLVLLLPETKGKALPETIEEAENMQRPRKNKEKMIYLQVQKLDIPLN

mDAT = mDAT (Mus musculus, UniProt Q61327); assay: [3H]MPP+ uptake inhibition in transiently transfected mDAT-HEK cells; assay type: cell-based
mSERT = mSERT (Mus musculus, UniProt Q60857); assay: [3H]5-HT uptake inhibition in transiently transfected mSERT-HEK cells; assay type: cell-based
hOCT3 = target: T2, hOCT3 (Homo sapiens, UniProt O75751); assay: [3H]MPP+ uptake competition in stable hOCT3-HEK cells; assay type: cell-based; details: 10 min room temperature
T2 sequence (O75751 1-556): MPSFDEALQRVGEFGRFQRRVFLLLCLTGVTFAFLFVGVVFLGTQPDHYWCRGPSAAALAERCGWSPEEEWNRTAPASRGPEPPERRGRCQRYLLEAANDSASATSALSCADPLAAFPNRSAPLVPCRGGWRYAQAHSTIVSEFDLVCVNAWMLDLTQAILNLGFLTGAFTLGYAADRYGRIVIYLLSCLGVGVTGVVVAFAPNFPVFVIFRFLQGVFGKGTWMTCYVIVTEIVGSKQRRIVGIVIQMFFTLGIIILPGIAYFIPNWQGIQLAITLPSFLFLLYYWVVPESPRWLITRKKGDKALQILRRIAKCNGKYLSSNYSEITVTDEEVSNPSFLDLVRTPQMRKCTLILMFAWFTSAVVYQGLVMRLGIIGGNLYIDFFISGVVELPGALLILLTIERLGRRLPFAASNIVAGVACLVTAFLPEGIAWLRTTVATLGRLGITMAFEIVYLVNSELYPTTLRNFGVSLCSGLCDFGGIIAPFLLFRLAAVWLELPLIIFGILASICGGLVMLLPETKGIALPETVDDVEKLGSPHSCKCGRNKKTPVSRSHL

mNET = mNET (Mus musculus, UniProt O55192); assay: [3H]MPP+ uptake inhibition in transiently transfected mNET-HEK cells; assay type: cell-based
hPMAT = target: T3, hPMAT (Homo sapiens, UniProt Q7RTT9); assay: [3H]MPP+ uptake competition in stable hPMAT-HEK cells; assay type: cell-based
T3 sequence (Q7RTT9 1-530): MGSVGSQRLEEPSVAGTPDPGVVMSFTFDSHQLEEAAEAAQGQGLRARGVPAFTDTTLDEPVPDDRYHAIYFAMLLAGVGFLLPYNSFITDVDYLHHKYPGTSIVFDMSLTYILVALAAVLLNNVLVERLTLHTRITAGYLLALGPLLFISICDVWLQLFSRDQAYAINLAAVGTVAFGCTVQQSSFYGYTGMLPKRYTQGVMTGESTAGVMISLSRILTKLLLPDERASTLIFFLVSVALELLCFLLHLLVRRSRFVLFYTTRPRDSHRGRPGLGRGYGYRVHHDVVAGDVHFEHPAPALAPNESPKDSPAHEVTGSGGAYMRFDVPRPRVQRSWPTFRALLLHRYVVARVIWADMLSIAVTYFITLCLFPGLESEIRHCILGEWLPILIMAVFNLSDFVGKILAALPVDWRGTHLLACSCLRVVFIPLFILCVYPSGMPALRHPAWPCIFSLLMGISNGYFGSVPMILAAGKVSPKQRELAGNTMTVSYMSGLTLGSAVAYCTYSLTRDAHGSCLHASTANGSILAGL

DAT = DAT (Mus musculus, UniProt Q61327); assay: [3H]WIN 35428 binding displacement in mouse striatum homogenate
[1] = read-out: hOCT2-HEK IC50, 10 nM [3H]MPP+ uptake
[2] = read-out: DAT [3H]WIN 35428 IC50, mouse striatum homogenate, 4 nM [3H]WIN 35428, 60 min
[3] = read-out: hOCT3-HEK IC50, 10 nM [3H]MPP+ uptake
[4] = read-out: hPMAT-HEK IC50, 10 nM [3H]MPP+ uptake, 10 min room temperature

mNET, sequence (O55192 whole entry): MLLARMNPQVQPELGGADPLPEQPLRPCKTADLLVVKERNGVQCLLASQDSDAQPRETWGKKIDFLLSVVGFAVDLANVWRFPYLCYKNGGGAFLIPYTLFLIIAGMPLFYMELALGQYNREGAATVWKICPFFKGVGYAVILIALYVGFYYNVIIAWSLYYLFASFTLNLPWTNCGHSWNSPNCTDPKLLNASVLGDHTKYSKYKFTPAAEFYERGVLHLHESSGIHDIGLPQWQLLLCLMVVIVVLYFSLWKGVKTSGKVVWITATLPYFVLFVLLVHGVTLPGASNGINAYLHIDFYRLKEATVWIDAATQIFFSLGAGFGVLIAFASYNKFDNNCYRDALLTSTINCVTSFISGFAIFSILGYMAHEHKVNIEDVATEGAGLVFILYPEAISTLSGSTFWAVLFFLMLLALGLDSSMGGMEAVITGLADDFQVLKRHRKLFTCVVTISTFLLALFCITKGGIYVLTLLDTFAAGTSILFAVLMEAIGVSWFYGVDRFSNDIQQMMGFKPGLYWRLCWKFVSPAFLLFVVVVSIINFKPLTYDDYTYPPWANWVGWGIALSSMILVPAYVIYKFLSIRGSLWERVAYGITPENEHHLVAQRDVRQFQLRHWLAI
mDAT, sequence (Q61327 whole entry): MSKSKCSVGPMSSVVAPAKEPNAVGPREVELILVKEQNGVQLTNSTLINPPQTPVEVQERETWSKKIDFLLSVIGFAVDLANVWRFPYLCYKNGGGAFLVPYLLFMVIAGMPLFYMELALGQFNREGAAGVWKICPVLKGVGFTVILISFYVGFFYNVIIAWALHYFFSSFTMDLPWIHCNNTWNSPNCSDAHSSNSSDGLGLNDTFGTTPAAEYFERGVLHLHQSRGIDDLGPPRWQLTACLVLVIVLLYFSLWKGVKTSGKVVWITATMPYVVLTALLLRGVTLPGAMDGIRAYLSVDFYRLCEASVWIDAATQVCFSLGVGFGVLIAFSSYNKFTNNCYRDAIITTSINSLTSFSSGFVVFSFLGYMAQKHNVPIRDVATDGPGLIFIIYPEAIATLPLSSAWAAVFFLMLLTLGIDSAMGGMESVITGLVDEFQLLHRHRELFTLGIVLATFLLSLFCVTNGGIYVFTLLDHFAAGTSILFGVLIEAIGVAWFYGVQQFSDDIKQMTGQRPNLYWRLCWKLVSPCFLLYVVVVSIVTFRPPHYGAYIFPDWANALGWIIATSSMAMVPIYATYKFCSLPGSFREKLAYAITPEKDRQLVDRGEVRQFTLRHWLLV
DAT, sequence (Q61327 whole entry): as above
mSERT, sequence (Q60857 whole entry): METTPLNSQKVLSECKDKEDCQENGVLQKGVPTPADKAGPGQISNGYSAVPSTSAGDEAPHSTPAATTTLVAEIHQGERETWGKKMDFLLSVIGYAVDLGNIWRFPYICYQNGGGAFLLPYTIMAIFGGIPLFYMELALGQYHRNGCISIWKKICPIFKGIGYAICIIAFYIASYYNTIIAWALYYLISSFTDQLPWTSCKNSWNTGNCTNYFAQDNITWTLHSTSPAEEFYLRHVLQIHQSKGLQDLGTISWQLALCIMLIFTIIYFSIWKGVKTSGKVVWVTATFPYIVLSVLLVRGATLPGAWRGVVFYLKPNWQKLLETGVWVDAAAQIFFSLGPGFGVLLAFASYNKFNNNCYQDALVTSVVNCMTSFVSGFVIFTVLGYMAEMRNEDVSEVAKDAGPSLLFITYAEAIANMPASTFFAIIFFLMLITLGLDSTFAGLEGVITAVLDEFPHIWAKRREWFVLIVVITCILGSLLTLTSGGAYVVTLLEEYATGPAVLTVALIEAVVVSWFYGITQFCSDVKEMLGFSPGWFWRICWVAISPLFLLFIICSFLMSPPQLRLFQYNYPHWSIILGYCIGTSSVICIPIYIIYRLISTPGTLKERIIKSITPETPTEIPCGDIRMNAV

For `C[C@]12C[C@H](O)[C@H]3[C@@H](CCC4=CC(=O)CC[C@@]43C)[C@@H]1CC[C@@H]2C(=O)CO` [Corticosterone], the pIC50 (hOCT2; hOCT2-HEK IC50, 10 nM [3H]MPP+ uptake) was 4.10, the pIC50 (mDAT) was 3.44 and the pIC50 (mSERT) was 3.35. The pIC50 (hOCT3; hOCT3-HEK IC50, 10 nM [3H]MPP+ uptake) was 6.22 and 6.21, the pIC50 (mNET) was 3.08 and the pIC50 (hPMAT) was 2.98.

With `COC(=O)[C@H]1[C@@H](OC(=O)c2ccccc2)C[C@@H]2CC[C@H]1N2C` [Cocaine] the pIC50 (mDAT; mDAT-HEK IC50, 20 nM [3H]MPP+ uptake, 3 min) was 6.74, the pIC50 (mSERT; mSERT-HEK IC50, 100 nM [3H]5-HT uptake, 1 min) was 6.30 and 6.29 and the pIC50 (mNET; mNET-HEK IC50, 20 nM [3H]MPP+ uptake, 3 min) was 5.92 and 5.93.

Compound `CCN1C(=Cc2ccc3ccccc3[n+]2CC)C=Cc2ccccc21` [Decynium 22, 1,1’-diethyl-2,2’-cyanine] has a pIC50 (hOCT2; [1]) of 5.00, a pIC50 (DAT; [2]) of 4.97 and a pIC50 (mDAT; read-out: mDAT-HEK IC50, 20 nM [3H]MPP+ uptake, 3 min) of 4.89. For the same compound, the pIC50 (mSERT; read-out: mSERT-HEK IC50, 100 nM [3H]5-HT uptake, 1 min) was 5.10, the pIC50 (mSERT; read-out: mSERT-HEK IC50, 100 nM [3H]5-HT uptake, 1 min, listed as D22) was 5.10 and the pIC50 (hOCT3; [3]) was 6.70. For the same compound, the pIC50 (mNET; read-out: mNET-HEK IC50, 20 nM [3H]MPP+ uptake, 3 min) was 4.46 and the pIC50 (hPMAT; [4]) was 5.96.

Work on `C[n+]1ccc(-c2ccccc2)cc1` [MPP^+, 1-methyl-4-phenylpyridinium] yielded a pIC50 (hOCT2; [1]) of 3.96, a pIC50 (hOCT3; [3]) of 4.04 and a pIC50 (hPMAT; [4]) of 2.99.

For `NCCc1ccc(O)c(O)c1` [Dopamine], the pIC50 (DAT) was 4.00.

In the case of `COC(=O)[C@H]1[C@@H](c2ccc(F)cc2)C[C@@H]2CC[C@H]1N2C` [WIN 35428], the pIC50 (DAT; [2]) was 7.22.
